Columns and labels:
Format in all cases: functional, cell-based
NB-4 [1] = test: Antiproliferative activity against human NB4 cells after 72 hrs by MTT assay
HL-60 [2] = test: Induction of differentiation in human HL60 cells after 72 hrs by NBT assay
HL-60 [3] = test: Antiproliferative activity against human HL60 cells after 72 hrs by MTT assay
NB-4 [4] = test: Induction of differentiation in human NB4 cells after 72 hrs by NBT assay

Measured: Activity

COc1ccc(Cn2c3c(c4cc(C)ccc4c2=O)C(C)c2ccccc2-3)cc1 (centres undefined)
active: NB-4 [1] Dose-dependent effect | HL-60 [2] Dose-dependent effect | HL-60 [3] Dose-dependent effect | NB-4 [4] Dose-dependent effect

From ChEMBL document CHEMBL1142285, “Indeno[1,2-c]isoquinolines as enhancing agents on all-trans retinoic acid-mediated differentiation of human myeloid leukemia cells” (2008)
